{"source": "patent US20040116386A1", "about": "“Resveratrol-phospholipids complexes, their preparation, and pharmaceutical and cosmetic composition containing same” (priority 2001, published 2004)", "key": {"[1]": {"assay": "Permeability through rabbit colon, Ussing Chamber method", "format": "in vitro ADME", "excerpt": "This device consists of: 6 cells divided into two parts by a septum, which accommodate the tissue obtained from the rabbit colon; an oxygenation system; a system for the circulation of a specific buffer solution maintained at constant temperature by heating; and finally electrodes for measuring the compound concentration variations, wherefrom the apparent permeability coefficient (Papp), expressed in cm/sec, is obtained."}, "[2]": {"assay": "Pharmacokinetic study, oral administration to rats", "format": "in vivo", "conditions": "rat, blood, equimolecular doses (Resveratrol 2 mg/Kg, complex 9.13 mg/Kg)", "protocol": "The product concentration in blood was determined at prefixed time intervals."}}}
{"compound": "Oc1ccc(/C=C/c2cc(O)cc(O)c2)cc1", "note": "[trans-Resveratrol]", "values": [{"measurement": "Papp", "setting": "[1]", "value": 0.2, "unit": "×10⁻⁶ cm/s"}, {"measurement": "concentration at 15 min", "setting": "[2]; 15 min", "value": 18, "unit": "ng/mL"}, {"measurement": "concentration at 30 min", "setting": "[2]; 30 min", "value": 34, "unit": "ng/mL"}, {"measurement": "concentration at 60 min", "setting": "[2]; 60 min", "value": 43, "unit": "ng/mL"}, {"measurement": "concentration at 120 min", "setting": "[2]; 120 min", "value": 11, "unit": "ng/mL"}, {"measurement": "concentration at 240 min", "setting": "[2]; 240 min", "value": 0, "unit": "ng/mL"}]}
